{
  "source": "patent US10822450B2",
  "about": "“Poly(glycerol sebacate)-interleukin inhibitor copolymers and methods of making and use” (THE SECANT GROUP, LLC, priority 2017, dated 2020)",
  "format": "physicochemical",
  "details": "pH 11",
  "procedure": "A PGS-aspirin copolymer from Example 6 was thermoset by heating to 130° C. at a pressure of 10 Torr for 72 hours. Three thin cylindrical disks, each having a diameter of 10 mm, were punched out of the resultant thin film, which was about 1 mm thick.\nEach disk was placed in 10 mL of 0.09 M phosphate-buffered saline (PBS) at a pH of 11 and a temperature of 37° C. for four weeks. At 1-week intervals, the solution was removed and tested for salicylic acid content by UV analysis at a wavelength of 303 nm and for pH. Each sample was rinsed three times with distilled water and vacuum dried prior to being placed in fresh PBS.",
  "data": [
    {"substance": "PGS-aspirin copolymer [Example 8]", "values": [
      {"measurement": "disk integrity during degradation", "value": "began to fall apart"}
    ]}
  ]
}
